Measured values published in patent US12668600B2 (Kumquat Biosciences Inc., priority 2023, dated 2026).

Tests used:
Assay type in all cases: biochemical
[1] = biological target: T1, KRAS G12D (Homo sapiens, UniProt P01116, G12D); assay: HTRF KRAS-SOS1 interaction assay, KRAS G12D; conditions: binned ≤2 μM / >2 μM, read-out: Inhibition of KRAS G12D (IC50)
T1 construct: made in house; host or cells: E. coli, e.g. BL21 (DE3)
In short: (§1)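 Inhibition of the KRAS–SOS1 interaction was measured by HTRF (ex 337, em 620/665 nm) after ≥~10 min incubation. Donor: anti-GST-Eu on GST-KRAS; acceptor: anti-6His-XL665 on His-hSOS1, in HEPES pH 7.4 buffer with DTT, BSA and Igepal. Compounds in duplicate at 0.01–10 μM; IC50 from emission ratio.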

[2] = biological target: T2, KRAS WT (Homo sapiens, UniProt P01116); assay: HTRF KRAS-SOS1 interaction assay, wildtype KRAS; conditions: binned ≤2 μM / >2 μM, read-out: Inhibition of KRAS WT (IC50)
T2 construct: made in house; host or cells: E. coli, e.g. BL21 (DE3)
T2 sequence (P01116 1-188 isoform P01116-2): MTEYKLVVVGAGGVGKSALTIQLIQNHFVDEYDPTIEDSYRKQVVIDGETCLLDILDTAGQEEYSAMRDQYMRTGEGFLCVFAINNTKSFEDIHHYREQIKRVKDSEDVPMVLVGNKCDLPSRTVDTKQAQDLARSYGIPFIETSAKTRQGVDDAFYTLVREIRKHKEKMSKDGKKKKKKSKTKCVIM
In short: as §1

[3] = biological target: T3, KRAS G12V (Homo sapiens, UniProt P01116, G12V); assay: HTRF KRAS-SOS1 interaction assay, KRAS G12V; conditions: binned ≤2 μM / >2 μM, read-out: Inhibition of KRAS G12V (IC50)
T3 construct: made in house; host or cells: E. coli, e.g. BL21 (DE3)
T3 sequence (P01116 1-188 isoform P01116-2 G12V): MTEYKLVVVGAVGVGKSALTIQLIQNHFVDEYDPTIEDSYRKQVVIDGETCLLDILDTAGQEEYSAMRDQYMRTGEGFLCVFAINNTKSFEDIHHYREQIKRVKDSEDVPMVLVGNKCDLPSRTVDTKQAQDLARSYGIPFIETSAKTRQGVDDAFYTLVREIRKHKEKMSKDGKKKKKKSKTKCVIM
In short: as §1

[4] = biological target: T4, KRAS G12S (Homo sapiens, UniProt P01116, G12S); assay: HTRF KRAS-SOS1 interaction assay, KRAS G12S; conditions: binned ≤2 μM / >2 μM, read-out: Inhibition of KRAS G12S (IC50)
T4 construct: made in house; host or cells: E. coli, e.g. BL21 (DE3)
T4 sequence (P01116 1-188 isoform P01116-2 G12S): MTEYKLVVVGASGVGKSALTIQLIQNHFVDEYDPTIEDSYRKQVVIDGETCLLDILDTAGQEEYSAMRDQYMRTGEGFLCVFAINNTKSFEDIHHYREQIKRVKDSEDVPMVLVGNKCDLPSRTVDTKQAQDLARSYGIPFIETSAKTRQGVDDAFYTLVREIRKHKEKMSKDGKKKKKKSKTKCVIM
In short: as §1

T1 sequence (P01116 1-188 isoform P01116-2 G12D): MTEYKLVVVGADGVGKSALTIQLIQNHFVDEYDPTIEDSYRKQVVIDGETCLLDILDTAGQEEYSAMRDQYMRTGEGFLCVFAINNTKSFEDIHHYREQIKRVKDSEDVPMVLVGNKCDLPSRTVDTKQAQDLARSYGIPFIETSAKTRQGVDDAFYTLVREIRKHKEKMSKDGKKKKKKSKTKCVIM

Row | Structure (SMILES) | IC50 [1] [nM] | IC50 [2] [nM] | IC50 [3] [nM] | IC50 [4] [nM]
1 | C[C@H](c1cc(F)cnc1N)N1CCOc2c(C(F)(F)F)c(-c3ccc(F)c4sc(N)c(C#N)c34)c(F)c3nc(OCC4(CN5CCC6(CC5)CC6(F)F)CC4)nc1c23 [Compound 841, 2-amino-4-(4-((R)-1-(2-amino-5-fluoropyridin-3-yl)ethyl)-2-((1-((1,1-difluoro-6-azaspiro[2.5]octan-6-yl)methyl)cyclopropyl)methoxy)-10-fluoro-8-(trifluoromethyl)-5,6-dihydro-4H-[1,4]oxazepino[5,6,7-de]quinazolin-9-yl)-7-fluorobenzo[b]thiophene-3-carbonitrile] | ≤ 2000 | ≤ 2000 | ≤ 2000 | ≤ 2000
2 | Cc1ccnc(N)c1[C@@H](C)N1CCOc2c(C(F)(F)F)c(-c3ccc(F)c4sc(N)c(C#N)c34)c(F)c3nc(OC[C@@]45CCCN4C[C@H](F)C5)nc1c23 (single isomer, unassigned) [Compound 821] | ≤ 2000 | ≤ 2000 | ≤ 2000 | ≤ 2000
3 | N#Cc1c(N)sc2c(F)ccc(-c3c(Cl)c4c5c(nc(OC[C@@]67CCCN6C[C@H](F)C7)nc5c3F)N(Cc3cccnc3N)C3COCC3CO4)c12 (mixture of isomers) [Compound 868, 2-amino-4-(12-((2-aminopyridin-3-yl)methyl)-6-chloro-4-fluoro-2-(((2R,7aS)-2-fluorotetrahydro-1H-pyrrolizin-7a (5H)-yl)methoxy)-8a,9,11a, 12-tetrahydro-8H, 11H-furo[3′,4′: 6,7][1,5]oxazocino[4,3,2-de]quinazolin-5-yl)-7-fluorobenzo[b]thiophene-3-carbonitrile] | ≤ 2000 | ≤ 2000 | ≤ 2000 | ≤ 2000
4 | C[C@H](c1cccnc1N)N1CCOc2c(Cl)c(-c3ccc(F)c4sc(N)c(C#N)c34)c(F)c3nc(OC[C@@]45CCCN4CC(CP(C)(C)=O)C5)nc1c23 (mixture of isomers) [Compound 839, 2-amino-4-(4-((R)-1-(2-aminopyridin-3-yl)ethyl)-8-chloro-2-(((7aS)-2-((dimethylphosphoryl)methyl)tetrahydro-1H-pyrrolizin-7a(5H)-yl)methoxy)-10-fluoro-5,6-dihydro-4H-[1,4]oxazepino[5,6,7-de]quinazolin-9-yl)-7-fluorobenzo[b]thiophene-3-carbonitrile] | ≤ 2000 | ≤ 2000 | ≤ 2000 | ≤ 2000
5 | N#Cc1c(N)sc2c(F)ccc(-c3c(Cl)c4c5c(nc(OC[C@@]67CCCN6C[C@H](F)C7)nc5c3F)N([C@H](C#CC3CC3)c3cccnc3N)CCO4)c12 [Compound 609, 2-amino-4-(4-((R)-1-(2-aminopyridin-3-yl)-3-cyclopropylprop-2-yn-1-yl)-8-chloro-10-fluoro-2-(((2R,7aS)-2-fluorotetrahydro-1H-pyrrolizin-7a(5H)-yl)methoxy)-5,6-dihydro-4H-[1,4]oxazepino[5,6,7-de]quinazolin-9-yl)-7-fluorobenzo[b]thiophene-3-carbonitrile] | ≤ 2000 | ≤ 2000 | ≤ 2000 | ≤ 2000
6 | C[C@H](c1ccc(F)nc1N)N1CCOc2c(C(F)(F)F)c(-c3ccc(F)c4sc(N)c(C#N)c34)c(F)c3nc(OCC4(CN5CCC(F)CC5)CC4)nc1c23 [Compound 604, 2-amino-4-(4-((R)-1-(2-amino-6-fluoropyridin-3-yl)ethyl)-10-fluoro-2-((1-((4-fluoropiperidin-1-yl)methyl)cyclopropyl)methoxy)-8-(trifluoromethyl)-5,6-dihydro-4H-[1,4]oxazepino[5,6,7-de]quinazolin-9-yl)-7-fluorobenzo[b]thiophene-3-carbonitrile] | ≤ 2000 | ≤ 2000 | ≤ 2000 | ≤ 2000
7 | CCO/N=C(\C)CCC[C@H](c1cccnc1N)N1CCOc2c(C(F)(F)F)c(-c3ccc(F)c4sc(N)c(C#N)c34)c(F)c3nc(OC[C@@]45CCCN4C[C@H](F)C5)nc1c23 (single isomer, unassigned) [Compound 715] | ≤ 2000 | ≤ 2000 | ≤ 2000 | ≤ 2000
8 | CC[C@H](c1cc(F)cnc1N)N1CCOc2c(C(F)(F)F)c(-c3ccc(F)c4sc(N)c(C#N)c34)c(F)c3nc(OC[C@@]45CCCN4C[C@H](F)C5)nc1c23 [Compound 870, 2-amino-4-(4-((R)-1-(2-amino-5-fluoropyridin-3-yl)propyl)-10-fluoro-2-(((2R,7aS)-2-fluorotetrahydro-1H-pyrrolizin-7a(5H)-yl)methoxy)-8-(trifluoromethyl)-5,6-dihydro-4H-[1,4]oxazepino[5,6,7-de]quinazolin-9-yl)-7-fluorobenzo[b]thiophene-3-carbonitrile] | ≤ 2000 | ≤ 2000 | ≤ 2000 | ≤ 2000

Continued, values first:

Row | IC50 [1] [nM] | IC50 [2] [nM] | IC50 [3] [nM] | IC50 [4] [nM] | Structure (SMILES)
9 | ≤ 2000 | ≤ 2000 | ≤ 2000 | ≤ 2000 | C[C@H](c1cccnc1N)N1CCOc2c(C(F)(F)F)c(-c3ccc(F)c4sc(N)c(C#N)c34)c(F)c3nc(OCC4(CN5CCC(F)(F)CC5)CC4)nc1c23 [Compound 778, 2-amino-4-(4-((R)-1-(2-aminopyridin-3-yl)ethyl)-2-((1-((4,4-difluoropiperidin-1-yl)methyl)cyclopropyl)methoxy)-10-fluoro-8-(trifluoromethyl)-5,6-dihydro-4H-[1,4]oxazepino[5,6,7-de]quinazolin-9-yl)-7-fluorobenzo[b]thiophene-3-carbonitrile]
10 | ≤ 2000 | ≤ 2000 | ≤ 2000 | ≤ 2000 | C=C[C@H](c1cccnc1N)N1CCOc2c(Cl)c(-c3ccc(F)c4sc(N)c(C#N)c34)c(F)c3nc(OC[C@@]45CCCN4C[C@H](F)C5)nc1c23 [Compound 759, 2-amino-4-(4-((R)-1-(2-aminopyridin-3-yl)allyl)-8-chloro-10-fluoro-2-(((2R,7aS)-2-fluorotetrahydro-1H-pyrrolizin-7a(5H)-yl)methoxy)-5,6-dihydro-4H-[1,4]oxazepino[5,6,7-de]quinazolin-9-yl)-7-fluorobenzo[b]thiophene-3-carbonitrile]
11 | ≤ 2000 | ≤ 2000 | ≤ 2000 | ≤ 2000 | C[C@H](c1cccnc1N)N1CCOc2c(Cl)c(-c3ccc(F)c4sc(N)c(C#N)c34)c(F)c3nc(OC[C@@H]4CC(F)(F)CN4C)nc1c23 (single isomer, unassigned) [Compound 741]
12 | ≤ 2000 | ≤ 2000 | ≤ 2000 | ≤ 2000 | COCC[C@H](c1cccnc1N)N1CCOc2c(C(F)(F)F)c(-c3ccc(F)c4sc(N)c(C#N)c34)c(F)c3nc(OC[C@@]45CCCN4C[C@H](F)C5)nc1c23 [Compound 782, 2-amino-4-(4-((R)-1-(2-aminopyridin-3-yl)-3-methoxypropyl)-10-fluoro-2-(((2R,7aS)-2-fluorotetrahydro-1H-pyrrolizin-7a(5H)-yl)methoxy)-8-(trifluoromethyl)-5,6-dihydro-4H-[1,4]oxazepino[5,6,7-de]quinazolin-9-yl)-7-fluorobenzo[b]thiophene-3-carbonitrile]
